Measured values reported in US8536354B2, “Steroidal ligands and their use in gene switch modulation” (Intrexon Corporation, priority 2008, dated 2013).

What was measured:
[1] = biological target: T1, BaEcR (GAL4-EcR DEF with VP16-RXR-USP chimera) (Bemisia tabaci, UniProt A0A6M3RDR8); experiment: Two-hybrid gene switch assay, luciferase reporter, BaEcR, mouse NIH3T3 cells; conditions: EC50, FIG. 14A/14B, GAL4-EcR(DEF) with VP16-RXR-USP chimera
T1 sequence (A0A6M3RDR8 115-530): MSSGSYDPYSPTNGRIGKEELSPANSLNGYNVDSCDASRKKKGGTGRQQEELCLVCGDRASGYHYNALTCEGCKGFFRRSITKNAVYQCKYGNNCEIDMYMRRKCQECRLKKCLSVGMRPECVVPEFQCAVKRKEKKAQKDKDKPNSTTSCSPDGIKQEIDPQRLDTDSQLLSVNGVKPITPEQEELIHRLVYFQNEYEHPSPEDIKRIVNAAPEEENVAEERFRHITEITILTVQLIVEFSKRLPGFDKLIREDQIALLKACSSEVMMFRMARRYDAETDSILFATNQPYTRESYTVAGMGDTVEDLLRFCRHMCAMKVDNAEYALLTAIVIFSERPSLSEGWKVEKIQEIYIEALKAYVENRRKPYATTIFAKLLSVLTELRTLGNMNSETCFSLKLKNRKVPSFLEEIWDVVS
T1 sequence (P28702 1-533 partner): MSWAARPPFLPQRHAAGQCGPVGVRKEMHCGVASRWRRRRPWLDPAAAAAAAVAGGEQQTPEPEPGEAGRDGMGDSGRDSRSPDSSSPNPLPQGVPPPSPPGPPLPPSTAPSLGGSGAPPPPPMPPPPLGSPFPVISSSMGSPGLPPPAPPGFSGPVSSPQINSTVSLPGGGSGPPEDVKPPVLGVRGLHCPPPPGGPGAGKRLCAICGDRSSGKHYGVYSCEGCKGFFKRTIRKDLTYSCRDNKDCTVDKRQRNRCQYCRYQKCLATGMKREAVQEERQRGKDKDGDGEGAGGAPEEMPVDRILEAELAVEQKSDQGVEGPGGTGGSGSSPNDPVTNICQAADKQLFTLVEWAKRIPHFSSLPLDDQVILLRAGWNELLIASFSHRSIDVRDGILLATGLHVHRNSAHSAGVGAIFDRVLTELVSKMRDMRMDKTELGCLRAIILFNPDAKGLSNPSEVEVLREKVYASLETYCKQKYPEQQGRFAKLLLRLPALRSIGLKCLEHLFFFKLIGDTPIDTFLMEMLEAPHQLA

[2] = biological target: T2, MsEcR (GAL4-EcR DEF with VP16-RXR-USP chimera) (Manduca sexta, UniProt P49883); experiment: Two-hybrid gene switch assay, luciferase reporter, MsEcR, mouse NIH3T3 cells
T2 sequence (P49883 1-556): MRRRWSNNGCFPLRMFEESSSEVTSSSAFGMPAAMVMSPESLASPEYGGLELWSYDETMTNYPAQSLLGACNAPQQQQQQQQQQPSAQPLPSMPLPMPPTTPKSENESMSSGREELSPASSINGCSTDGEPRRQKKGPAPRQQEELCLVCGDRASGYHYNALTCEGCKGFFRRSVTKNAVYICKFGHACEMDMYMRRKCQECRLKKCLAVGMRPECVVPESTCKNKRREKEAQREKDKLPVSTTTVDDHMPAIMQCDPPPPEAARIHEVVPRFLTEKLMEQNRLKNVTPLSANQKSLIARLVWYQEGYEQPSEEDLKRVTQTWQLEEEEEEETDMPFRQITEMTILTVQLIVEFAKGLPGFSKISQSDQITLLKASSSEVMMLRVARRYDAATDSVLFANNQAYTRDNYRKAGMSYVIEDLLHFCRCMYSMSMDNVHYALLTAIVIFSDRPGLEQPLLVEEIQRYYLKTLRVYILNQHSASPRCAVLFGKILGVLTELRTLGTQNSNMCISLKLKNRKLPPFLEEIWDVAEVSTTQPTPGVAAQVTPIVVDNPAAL
T2 sequence (P28702 1-533 partner): T1 sequence (P28702 1-533 partner)

[3] = biological target: T3, TmEcR (GAL4-EcR DEF with VP16-RXR partner) (Tenebrio molitor, UniProt O02035); experiment: Two-hybrid gene switch assay, luciferase reporter, TmEcR, mouse NIH3T3 cells
T3 sequence (O02035 194-491): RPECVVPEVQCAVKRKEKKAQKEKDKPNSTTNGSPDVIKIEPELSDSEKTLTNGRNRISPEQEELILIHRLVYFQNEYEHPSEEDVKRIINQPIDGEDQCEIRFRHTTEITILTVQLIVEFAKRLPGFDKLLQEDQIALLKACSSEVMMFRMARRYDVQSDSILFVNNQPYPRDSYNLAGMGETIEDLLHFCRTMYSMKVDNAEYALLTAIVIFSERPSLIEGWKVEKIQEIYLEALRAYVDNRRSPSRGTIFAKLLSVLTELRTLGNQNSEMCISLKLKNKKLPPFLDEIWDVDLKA
T3 sequence (P28704 1-520 partner): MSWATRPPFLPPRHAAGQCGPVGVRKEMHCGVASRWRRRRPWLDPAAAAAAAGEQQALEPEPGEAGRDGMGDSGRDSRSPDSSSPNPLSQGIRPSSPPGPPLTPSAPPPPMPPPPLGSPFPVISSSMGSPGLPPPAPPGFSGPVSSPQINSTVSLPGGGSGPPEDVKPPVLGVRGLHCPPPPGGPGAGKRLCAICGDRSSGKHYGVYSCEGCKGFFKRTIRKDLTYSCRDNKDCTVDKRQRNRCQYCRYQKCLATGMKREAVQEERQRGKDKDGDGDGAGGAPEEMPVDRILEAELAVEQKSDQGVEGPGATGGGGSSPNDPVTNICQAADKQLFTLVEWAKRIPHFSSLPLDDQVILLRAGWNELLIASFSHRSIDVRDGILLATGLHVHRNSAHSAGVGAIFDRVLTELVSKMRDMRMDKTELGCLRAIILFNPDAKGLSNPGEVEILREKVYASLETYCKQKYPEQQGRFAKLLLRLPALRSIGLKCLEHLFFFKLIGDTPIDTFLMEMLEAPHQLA

[4] = biological target: T4, wild-type CfEcR (GAL4-CfEcR-DEF with VP16-RXR-USP chimera) (Choristoneura fumiferana, UniProt O77255); experiment: Two-hybrid gene switch assay, luciferase reporter, wild-type CfEcR, mouse NIH3T3 cells
T4 sequence (O77255 219-541): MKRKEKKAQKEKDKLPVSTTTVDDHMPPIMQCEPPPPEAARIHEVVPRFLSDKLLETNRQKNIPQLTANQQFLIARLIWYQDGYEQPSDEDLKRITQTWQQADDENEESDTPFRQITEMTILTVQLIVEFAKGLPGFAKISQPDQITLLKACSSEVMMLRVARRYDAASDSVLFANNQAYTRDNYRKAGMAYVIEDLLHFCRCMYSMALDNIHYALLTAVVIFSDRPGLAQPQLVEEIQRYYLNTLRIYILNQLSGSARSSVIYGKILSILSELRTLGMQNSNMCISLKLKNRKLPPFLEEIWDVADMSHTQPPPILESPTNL
T4 sequence (P28702 1-533 partner): T1 sequence (P28702 1-533 partner)

[5] = EC50, FIG. 13A/13B, GAL4-EcR(DEF) with VP16-RXR-USP chimera
[6] = EC50, FIG. 14A/14B, GAL4-EcR(DEF)

| Structure (SMILES) | EC50 [1] [µM] | EC50 [2, 5] [µM] | EC50 ([2]; EC50, FIG. 15, GAL4-EcR (DEF) / VP16-RXR-USP chimera) [µM] | EC50 [3, 6] [µM] | EC50 ([3]; EC50, FIG. 16, GAL4-EcR (DEF)) [µM] | EC50 [4] [µM] |
| --- | --- | --- | --- | --- | --- | --- |
| CC(C)(O)CC[C@@H](O)[C@](C)(O)[C@H]1CC[C@@]2(O)C3=CC(=O)[C@]4(O)C[C@@H](O)[C@@H](O)C[C@]4(C)[C@H]3CC[C@]12C [polypodine B] | ~3.3 | ~2 | 4.35 | ~10 | ~3 | ~20 |
| CC(C)(O)CC[C@@H](O)[C@](C)(O)[C@H]1CC[C@@]2(O)C3=C[C@@H](O)[C@@H]4C[C@@H](O)[C@@H](O)C[C@]4(C)[C@H]3CC[C@]12C [Compound 6b-hydroxy-20-hydroxyecdysone] | ~20 | ~12 | – | ~20 | – | > 33 |
| CC(C)(O)CC[C@@H](OC(=O)c1ccc[nH]1)[C@](C)(O)[C@H]1CC[C@@]2(O)C3=CC(=O)[C@@H]4C[C@@H](O)[C@@H](O)C[C@]4(C)[C@H]3CC[C@]12C | ~15 | > 33 | – | ~20 | – | > 33 |
| CC(C)(O)CC[C@@H](O)[C@](C)(O)[C@H]1CC[C@@]2(O)C3=CC(=O)[C@@H]4C[C@@H](O)[C@@H](O)C[C@]4(C)[C@H]3[C@H](O)C[C@]12C [turkesterone] | ~20 | ~12 | – | > 33 | – | > 33 |
| CC(C)(O)CC[C@@H](O)[C@](C)(O)[C@H]1CC[C@@]2(O)C3=CC(=O)[C@@H]4C[C@H]5OC(C)(C)O[C@H]5C[C@]4(C)[C@H]3CC[C@]12C [20-hydroxyecdysone-2,3-acetonide] | ~15 | ~10 | – | ~10 | – | > 33 |
| CC(C)(O)CCC(=O)[C@](C)(O)[C@H]1CC[C@@]2(O)C3=CC(=O)[C@@H]4C[C@@H](O)[C@@H](O)C[C@]4(C)[C@H]3CC[C@]12C [Compound 22-dehydro-20-hydroxyecdysone] | ~12 | 10.3 | – | ~15 | – | > 33 |
| CC(C)(O)CC[C@@H](O)[C@](C)(O)[C@H]1CC[C@@]2(O)C3=CC(=O)[C@@H]4C[C@@H](O)[C@@H](O)[C@@H](O)[C@]4(C)[C@H]3CC[C@]12C [integristerone A] | ~20 | ~12 | – | ~8 | – | > 33 |
